Assay results from PubChem BioAssay AID248 (DTP/NCI, 2004).
“And” between values parts separate entries of the source, which are not always exact repeats. Equal entries are not always repeated. Toxic doses and inconclusive results are not listed. No stated cut-off is given here; in the data, active means T/C of 150% or more; inactive means T/C below 125%.

Test system: L1210 leukemia ip in BDF1 mice, survival T/C
Assay: NCI In Vivo Anticancer Drug Screen. Data for tumor model L1210 Leukemia (intraperitoneal) in B6D2F1 (BDF1) mice
Settings: endpoint: mean survival time, higher = longer survival
Procedure, shortened: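 Transplantable tumor model; survival measured in treated vs vehicle control mice. Value = treated/control.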

[1] = dose: 100.0 mg/kg/injection, schedule: Q01DX009 (ip), vehicle: Klucel (hydroxypropylcellulose) (HPC)
[2] = dose: 100.0 mg/kg/injection, schedule: Q04DX003 (ip), vehicle: Klucel (hydroxypropylcellulose) (HPC)
[3] = dose: 200.0 mg/kg/injection, schedule: Q01DX009 (ip), vehicle: Klucel (hydroxypropylcellulose) (HPC)
[4] = dose: 200.0 mg/kg/injection, schedule: Q04DX003 (ip), vehicle: Klucel (hydroxypropylcellulose) (HPC)
[5] = dose: 400.0 mg/kg/injection, schedule: Q01DX009 (ip), vehicle: Klucel (hydroxypropylcellulose) (HPC)
[6] = dose: 400.0 mg/kg/injection, schedule: Q04DX003 (ip), vehicle: Klucel (hydroxypropylcellulose) (HPC)
[7] = dose: 100.0 mg/kg/injection, schedule: Q01DX009 (ip), vehicle: saline with Tween-80
[8] = dose: 100.0 mg/kg/injection, schedule: Q04DX003 (ip), vehicle: saline with Tween-80
[9] = dose: 200.0 mg/kg/injection, schedule: Q01DX009 (ip), vehicle: saline with Tween-80
[10] = dose: 200.0 mg/kg/injection, schedule: Q04DX003 (ip), vehicle: saline with Tween-80
[11] = dose: 400.0 mg/kg/injection, schedule: Q01DX009 (ip), vehicle: saline with Tween-80
[12] = dose: 400.0 mg/kg/injection, schedule: Q04DX003 (ip), vehicle: saline with Tween-80
[13] = dose: 50.0 mg/kg/injection, schedule: Q01DX009 (ip), vehicle: saline with Tween-80
[14] = dose: 200.0 mg/kg/injection, schedule: Q01DX001 (ip), vehicle: water
[15] = dose: 400.0 mg/kg/injection, schedule: Q01DX001 (ip), vehicle: water
[16] = dose: 25.0 mg/kg/injection, schedule: Q01DX009 (ip), vehicle: saline with Tween-80
[17] = dose: 100.0 mg/kg/injection, schedule: Q04DX002 (ip), vehicle: Klucel (hydroxypropylcellulose) (HPC)
[18] = dose: 200.0 mg/kg/injection, schedule: Q04DX002 (ip), vehicle: Klucel (hydroxypropylcellulose) (HPC)
[19] = dose: 400.0 mg/kg/injection, schedule: Q04DX002 (ip), vehicle: Klucel (hydroxypropylcellulose) (HPC)
[20] = dose: 25.0 mg/kg/injection, schedule: Q04DX003 (ip), vehicle: saline with Tween-80
[21] = dose: 50.0 mg/kg/injection, schedule: Q04DX003 (ip), vehicle: saline with Tween-80
[22] = dose: 100.0 mg/kg/injection, schedule: Q01DX001 (ip), vehicle: saline
[23] = dose: 200.0 mg/kg/injection, schedule: Q01DX001 (ip), vehicle: saline
[24] = dose: 400.0 mg/kg/injection, schedule: Q01DX001 (ip), vehicle: saline
[25] = dose: 100.0 mg/kg/injection, schedule: Q01DX001 (ip), vehicle: carboxymethylcellulose (CMC)
[26] = dose: 200.0 mg/kg/injection, schedule: Q01DX001 (ip), vehicle: carboxymethylcellulose (CMC)
[27] = dose: 400.0 mg/kg/injection, schedule: Q01DX001 (ip), vehicle: carboxymethylcellulose (CMC)
[28] = dose: 50.0 mg/kg/injection, schedule: Q01DX001 (ip), vehicle: carboxymethylcellulose (CMC)
[29] = dose: 100.0 mg/kg/injection, schedule: Q04DX002 (ip), vehicle: saline
[30] = dose: 200.0 mg/kg/injection, schedule: Q04DX002 (ip), vehicle: saline
[31] = dose: 400.0 mg/kg/injection, schedule: Q04DX002 (ip), vehicle: saline

Measured: T/C

CCC1CN2C(=N1)c1ccccc1-c1cc([N+](=O)[O-])ccc12 (stereo not given)
inactive: [1] 101 % of control | [2] 99 % of control | [3] 104 % of control | [4] 106 % of control | [5] 95 % of control | [6] 97 % of control

CC(C)C(C(=O)c1ccccc1)c1ccccc1 (stereo not given)
inactive: [7] 93 % of control | [8] 99 % of control | [9] 93 % of control | [10] 100 % of control | [11] 104 % of control | [12] 89 % of control

O=C(CNC(=O)Nc1ccc(Cl)c(Cl)c1)N/N=C/c1cccc(F)c1
inactive: [13] 96 % of control | [7] 93 % of control | [9] 89 % of control

COc1ccc(-c2nc(-c3cccc(O)c3)[nH]c2-c2ccc(OC)cc2)cc1
inactive: [7] 93 % of control | [9] 98 % of control | [11] 105 % of control

CC(=O)CC(C)=Nc1ccc(Cl)cc1
inactive: [1] 97 % of control | [2] 96 % of control | [3] 105 % of control | [4] 110 % of control | [5] 108 % of control | [6] 104 % of control

CC1(C)CC(OP(=O)(OC2CC(C)(C)N(O)C(C)(C)C2)c2ccccc2)CC(C)(C)N1O
inactive: dose: 100.0 mg/kg/injection, schedule: Q01DX001 (ip), vehicle: water 91 % of control | [14] 106 % of control | [15] 89 % of control

CC(=O)OCC1OC(S[As](C)SC2OC(COC(C)=O)C(OC(C)=O)C(OC(C)=O)C2OC(C)=O)C(OC(C)=O)C(OC(C)=O)C1OC(C)=O (stereo not given)
inactive: dose: 6.25 mg/kg/injection, schedule: Q01DX009 (ip), vehicle: saline with Tween-80 101 % of control | dose: 12.5 mg/kg/injection, schedule: Q01DX009 (ip), vehicle: saline with Tween-80 116 % of control | [16] 116 % of control

Nc1nc2nc[nH]c2c(Cl)c1Br
inactive: [17] 104 % of control | [18] 115 % of control

Cc1c(C)c(C)c(CC2(C)CSC2)c(CC2(C)CSC2)c1C
inactive: [17] 100 % of control | [18] 91 % of control | [19] 94 % of control

CCCC[As](=O)(O)CCO
inactive: [20] 102 % of control | [21] 94 % of control

CN=C(NC)SC
inactive: [22] 103 % of control | [2] 100 % of control | [23] 97 % of control | [4] 93 % of control | [24] 96 % of control | [6] 100 % of control

CN(C)c1ccc2c(c1)/C(=N/O)c1ccccc1-2
inactive: [25] 103 % of control | [26] 105 % of control | [27] 100 % of control

CNCC(N)=O
inactive: [28] 108 % of control | [25] 105 % of control | [26] 98 % of control | [27] 95 % of control

CCOC(=O)/C=C\SCC(=O)OCC
inactive: [29] 104 % of control | [30] 104 % of control | [31] 93 % of control

CC1(C)CCc2cc(C(=O)O)ccc2O1
inactive: dose: 50.0 mg/kg/injection, schedule: Q01DX001 (ip), vehicle: saline 100 % of control | [22] 100 % of control | [23] 103 % of control | [24] 100 % of control

CC1CCOCO1 (stereo not given)
inactive: [28] 98 % of control | [25] 98 % of control | [26] 95 % of control | [27] 95 % of control

CCn1c2ccccc2c2cc3ccnc(C)c3cc21
inactive: [17] 97 % of control | [18] 101 % of control | [19] 111 % of control

Cc1ccc(S(=O)(=O)N/N=C/Cc2ccccc2)cc1
inactive: dose: 100.0 mg/kg/injection, schedule: Q04DX002 (ip), vehicle: gum acacia 100 % of control | dose: 200.0 mg/kg/injection, schedule: Q04DX002 (ip), vehicle: gum acacia 100 % of control | dose: 400.0 mg/kg/injection, schedule: Q04DX002 (ip), vehicle: gum acacia 100 % of control

CCC/C=C(\C)C#CC1=CCCCC1
inactive: [28] 97 % of control | [25] 100 % of control | [26] 94 % of control | [27] 97 % of control

O[C@H]1[C@H]2c3cc4c(cc3CN3CCC(=C[C@@H]1O)[C@H]23)OCO4
inactive: dose: 50.0 mg/kg/injection, schedule: Q01DX Z (ip), vehicle: steriod suspending solution 120 % of control | dose: 75.0 mg/kg/injection, schedule: Q01DX Z (ip), vehicle: steriod suspending solution 96 % of control and 105 % of control | dose: 100.0 mg/kg/injection, schedule: Q01DX Z (ip), vehicle: steriod suspending solution 114 % of control

CN(C)c1ccc(/C=C2\C=Nc3ccccc32)cc1
inactive: [8] 87 % of control | [10] 87 % of control | [12] 87 % of control

CC(N)CN (stereo not given)
inactive: [29] 100 % of control | [30] 89 % of control | [31] 103 % of control

Cc1cccc(Cl)c1N=C=O
inactive: [22] 102 % of control | [23] 102 % of control

O=C(Nc1ccccc1)c1ccccc1C(O)(c1ccccc1)c1ccccc1
inactive: [22] 97 % of control | [23] 86 % of control | [24] 102 % of control

CC(C)C(CNC1=NCCN1)c1cccc2ccccc12 (stereo not given)
inactive: dose: 12.5 mg/kg/injection, schedule: Q04DX003 (ip), vehicle: saline with Tween-80 93 % of control | [20] 93 % of control | [21] 119 % of control

O=C1C=C(C23CC4CC(CC(C4)C2)C3)N2CCCc3cccc(c32)N1
inactive: [17] 97 % of control | [18] 105 % of control | [19] 97 % of control

CC(=O)OCC1OC(n2cc(F)c(=O)[nH]c2=O)CC1OC(C)=O (stereo not given)
inactive: dose: 3.0 mg/kg/injection, schedule: Q01DX009 (ip), vehicle: saline 98 % of control | dose: 6.0 mg/kg/injection, schedule: Q01DX009 (ip), vehicle: saline 95 % of control | dose: 12.0 mg/kg/injection, schedule: Q01DX009 (ip), vehicle: saline 95 % of control | dose: 24.0 mg/kg/injection, schedule: Q01DX009 (ip), vehicle: saline 106 % of control | dose: 25.0 mg/kg/injection, schedule: Q01DX009 (ip), vehicle: saline 111 % of control | dose: 50.0 mg/kg/injection, schedule: Q01DX009 (ip), vehicle: saline 122 % of control | dose: 200.0 mg/kg/injection, schedule: Q01DX009 (ip), vehicle: saline 123 % of control

c1ccc(P(CN(CCN(CP(c2ccccc2)c2ccccc2)CP(c2ccccc2)c2ccccc2)CP(c2ccccc2)c2ccccc2)c2ccccc2)cc1
inactive: dose: 100.0 mg/kg/injection, schedule: Q04DX002 (sc), vehicle: olive oil, sesame oil, peanut oil 100 % of control | dose: 200.0 mg/kg/injection, schedule: Q04DX002 (sc), vehicle: olive oil, sesame oil, peanut oil 110 % of control | dose: 400.0 mg/kg/injection, schedule: Q04DX002 (sc), vehicle: olive oil, sesame oil, peanut oil 107 % of control

CCC(CCC(C)C1CCC2C3CC=C4CC(O)CCC4(C)C3CCC12C)C(C)C (stereo not given) (tested in a mixture with another compound)
inactive: dose: 12.5 mg/kg/injection, schedule: Q#A X030 (ip), vehicle: water 103 % of control | [16] 93 % of control | dose: 25.0 mg/kg/injection, schedule: Q#A X030 (ip), vehicle: water 101 % of control | [13] 89 % of control | dose: 50.0 mg/kg/injection, schedule: Q#A X030 (ip), vehicle: water 92 % of control | [8] 100 % of control | [14] 101 % of control | [15] 95 % of control

O=C(O)c1c(Cl)n(-c2ccccc2)c2ccccc12
inactive: dose: 50.0 mg/kg/injection, schedule: Q04DX002 (ip), vehicle: Klucel (hydroxypropylcellulose) (HPC) 101 % of control | [17] 104 % of control | [18] 93 % of control

CC1=NN(c2cccc(S(=O)(=O)O)c2)C(=O)C1
inactive: [8] 105 % of control | [10] 101 % of control | [12] 89 % of control
